In patent US20150261911A1, “CRYSTAL STRUCTURE” (Heptares Therapeutics Limited, priority 2014, published 2015):
“Also recorded” adds a separate entry of the source.

T1: CRF1R F203A(3.44) (Homo sapiens, UniProt P34998, F203A)
T1 construct: expressed in transfected cells; host or cells: HEK293T, transient; whole cells solubilised in DDM
T1 sequence (P34998 with tags, fused parts or gaps F203A): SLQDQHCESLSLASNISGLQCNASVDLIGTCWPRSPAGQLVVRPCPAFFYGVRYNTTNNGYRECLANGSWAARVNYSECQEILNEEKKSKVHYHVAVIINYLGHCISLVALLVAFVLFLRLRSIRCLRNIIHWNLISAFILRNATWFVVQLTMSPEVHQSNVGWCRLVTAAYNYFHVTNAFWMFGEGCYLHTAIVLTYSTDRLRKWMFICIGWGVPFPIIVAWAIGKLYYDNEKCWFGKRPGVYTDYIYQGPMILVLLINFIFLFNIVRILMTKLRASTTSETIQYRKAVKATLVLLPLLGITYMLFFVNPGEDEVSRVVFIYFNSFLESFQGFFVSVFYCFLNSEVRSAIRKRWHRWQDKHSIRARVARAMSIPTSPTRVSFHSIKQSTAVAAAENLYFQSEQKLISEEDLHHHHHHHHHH

T2: CRF1R L280A(5.47) (Homo sapiens, UniProt P34998, L280A)
T2 construct: expressed in transfected cells; host or cells: HEK293T, transient; whole cells solubilised in DDM
T2 sequence (P34998 with tags, fused parts or gaps L280A): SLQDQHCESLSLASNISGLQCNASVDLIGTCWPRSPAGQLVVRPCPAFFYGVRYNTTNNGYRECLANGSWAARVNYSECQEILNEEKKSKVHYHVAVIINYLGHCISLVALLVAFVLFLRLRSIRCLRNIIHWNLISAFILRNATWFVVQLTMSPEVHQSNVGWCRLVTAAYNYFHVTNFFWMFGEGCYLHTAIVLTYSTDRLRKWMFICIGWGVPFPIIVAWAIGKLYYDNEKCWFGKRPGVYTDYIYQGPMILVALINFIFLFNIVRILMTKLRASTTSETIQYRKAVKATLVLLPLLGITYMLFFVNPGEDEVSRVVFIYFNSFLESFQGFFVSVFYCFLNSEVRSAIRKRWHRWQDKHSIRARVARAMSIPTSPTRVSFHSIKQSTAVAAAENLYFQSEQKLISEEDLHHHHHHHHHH

T3: CRF1R N283A(5.50) (Homo sapiens, UniProt P34998, N283A)
T3 construct: expressed in transfected cells; host or cells: HEK293T, transient; whole cells solubilised in DDM
T3 sequence (P34998 with tags, fused parts or gaps N283A): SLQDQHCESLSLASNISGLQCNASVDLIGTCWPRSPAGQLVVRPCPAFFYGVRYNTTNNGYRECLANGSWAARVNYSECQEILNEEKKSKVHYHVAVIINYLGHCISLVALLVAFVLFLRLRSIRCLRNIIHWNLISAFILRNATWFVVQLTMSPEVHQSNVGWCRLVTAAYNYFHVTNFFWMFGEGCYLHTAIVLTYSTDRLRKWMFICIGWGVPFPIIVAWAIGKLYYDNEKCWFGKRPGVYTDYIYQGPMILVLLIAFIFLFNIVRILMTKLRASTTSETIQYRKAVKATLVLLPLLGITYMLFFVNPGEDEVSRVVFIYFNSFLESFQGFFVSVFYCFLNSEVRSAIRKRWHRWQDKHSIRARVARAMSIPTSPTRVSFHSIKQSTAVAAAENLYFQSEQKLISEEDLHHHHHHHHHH

T4: CRF1R Q355A(7.49) (Homo sapiens, UniProt P34998, Q355A)
T4 construct: expressed in transfected cells; host or cells: HEK293T, transient; whole cells solubilised in DDM
T4 sequence (P34998 with tags, fused parts or gaps Q355A): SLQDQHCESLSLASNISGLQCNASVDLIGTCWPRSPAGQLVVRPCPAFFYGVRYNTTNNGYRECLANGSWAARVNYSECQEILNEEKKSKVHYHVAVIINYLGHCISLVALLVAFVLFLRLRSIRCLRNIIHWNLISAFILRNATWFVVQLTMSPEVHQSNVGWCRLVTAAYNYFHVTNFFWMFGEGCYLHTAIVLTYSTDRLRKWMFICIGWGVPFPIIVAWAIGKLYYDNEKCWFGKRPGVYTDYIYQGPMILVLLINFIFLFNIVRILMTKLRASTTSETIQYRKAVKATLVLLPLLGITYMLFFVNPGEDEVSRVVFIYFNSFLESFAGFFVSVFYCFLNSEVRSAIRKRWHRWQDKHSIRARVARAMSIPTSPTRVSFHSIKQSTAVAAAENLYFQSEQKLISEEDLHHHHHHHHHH


Key:
CRF1R F203A(3.44) = target: T1, CRF1R F203A(3.44); assay: Solubilised whole cell ligand binding, alanine mutagenesis; details: Phe203^3.44Ala
Experimental: (§1) HEK293T cells transiently transfected with CRF1R constructs were incubated in buffer (50mMTris-HCl pH 7.5, 150mMNaCl, EDTA-free protease inhibitors) with 30 nM [^3H]CP-376395, and 120 nM cold CP-376395 (Tocris) for 18 hours at room temperature. Reactions were transferred to ice and all subsequent steps performed at 4° C. Cells were solubilized in 1% (w/v) n-dodecyl-β-D-maltopyranoside (DDM, Affymetrix) for 1 hour and crude lysates cleared by centrifugation at 16.000×g for 15 minutes. Thermostability of the receptor was measured by incubation at varying temperatures for 30 minutes followed by separation of excess and unbound radioligand by gel filtration. Levels of ligand-bound receptor were then determined using a liquid scintillation counter.
(§2) For saturation binding experiments, membranes isolated from HEK293T cells transiently expressing wild-type CRF1R (15 μg/well), CRF1R StaR (6 μg/well), CRF1R StaR with T4L fusion (20 μg/well), and CRF1R-#105 (20 μg/well) were incubated in buffer (50mMTris-HCl pH 7.5, 150 mM NaCl, 0.1% (w/v) PEI, EDTA-free protease inhibitors) with [^3H]CP-376395 (0-60 nM) in the presence or absence of 30 uM cold CP-376395 in a final volume of 500 μl. Final DMSO concentration in each reaction was 5% (v/v). Membranes were incubated for 18 hours at room temperature before being terminated by rapid filtration through 96-well GF/C UniFilter plates pre-soaked in 0.3% (w/v) PEI, followed by washing with PBS with 0.15% (w/v) CHAPS. Plates were dried, 50 μl Ultima Gold-F added per well and bound ligand measured using a Packard Microbeta counter. Data were analyzed using a global fitted one-site binding hyperbola in GraphPad Prism v5 to generate Kd. For solubilized whole cell ligand binding experiments, HEK293T cells transiently expressing eGFP-tagged wild-type CRF1R or single point mutants were treated as described above for thermostability experiments, without the 30 minute heating step. Specific binding was determined by subtracting untransfected controls. Expression of each construct was quantified by eGFP fluorescence of whole cells measured at Ex/Em of 488/520 nm.

CRF1R L280A(5.47) = target: T2, CRF1R L280A(5.47); assay: as above; details: Leu280^5.47Ala
Experimental: as §1, §2

CRF1R N283A(5.50) = target: T3, CRF1R N283A(5.50); assay: as above; details: Asn283^5.50Ala
Experimental: as §1, §2

CRF1R Q355A(7.49) = target: T4, CRF1R Q355A(7.49); assay: as above; details: Gln355^7.49 substituted with alanine
Experimental: as §1, §2

[1] = Thermostability measurement of CRF1R constructs solubilised in DDM, read out by [3H]CP-376395 binding; format: physicochemical, human; details: measured using [3H]CP-376395 binding, mean of four independent experiments, standard deviation in parentheses
Experimental: as §1

Row | Molecule | antagonist binding after mutation to alanine (CRF1R F203A(3.44)) | antagonist binding after mutation to alanine (CRF1R L280A(5.47)) | ligand binding after mutation to alanine (CRF1R N283A(5.50)) | CP-376395 binding after substitution with alanine (CRF1R Q355A(7.49)) | Mean Tm [1]
1 | CCC(CC)Nc1cc(C)nc(Oc2c(C)cc(C)cc2C)c1C [CP-376395] | negligible or no binding detected | negligible or no binding detected | complete loss of ligand binding; also recorded: negligible or no binding detected | did not affect | –
2 | CRF1R wild type: wild-type human corticotropin-releasing factor receptor 1 (FIG. 12, SEQ ID NO:18) (protein) MGGHPQLRLVKALLLLGLNPVSASLQDQHCESLSLASNISGLQCNASVDLIGTCWPRSPAGQLVVRPCPAFFYGVRYNTTNNGYRECLANGSWAARVNYSECQEILNEEKKSKVHYHVAVIINYLGHCISLVALLVAFVLFLRLRSIRCLRNIIHWNLISAFILRNATWFVVQLTMSPEVHQSNVGWCRLVTAAYNYFHVTNFFWMFGEGCYLHTAIVLTYSTDRLRKWMFICIGWGVPFPIIVAWAIGKLYYDNEKCWFGKRPGVYTDYIYQGPMILVLLINFIFLFNIVRILMTKLRASTTSETIQYRKAVKATLVLLPLLGITYMLFFVNPGEDEVSRVVFIYFNSFLESFQGFFVSVFYCFLNSEVRSAIRKRWHRWQDKHSIRARVARAMSIPTSPTRVSFHSIKQSTAVAAAENLYFQSEQKLISEEDLHHHHHHHHHH | – | – | – | – | 18.4 (2.0) ° C.
3 | CRF1R StaR: thermostabilized CRF1R with 12 mutations: V120A, L144A, W156A, S160A, S222A, K228A, F260A, I277A, Y309A, F330A, S349A, Y363A (protein, C-terminal tag) MGGHPQLRLVKALLLLGLNPVSASLQDQHCESLSLASNISGLQCNASVDLIGTCWPRSPAGQLVVRPCPAFFYGVRYNTTNNGYRECLANGSWAARVNYSECQEILNEEKKSKVHYHVAAIINYLGHCISLVALLVAFVLFLRARSIRCLRNIIHANLIAAFILRNATWFVVQLTMSPEVHQSNVGWCRLVTAAYNYFHVTNFFWMFGEGCYLHTAIVLTYATDRLRAWMFICIGWGVPFPIIVAWAIGKLYYDNEKCWAGKRPGVYTDYIYQGPMALVLLINFIFLFNIVRILMTKLRASTTSETIQARKAVKATLVLLPLLGITYMLAFVNPGEDEVSRVVFIYFNAFLESFQGFFVSVFACFLNSEVRSAIRKRWHRWQDKHSIRARVARAMSIPTSPTRVSFHSIKQSTAVAAAENLYFQSEQKLISEEDLHHHHHHHHHH | – | – | – | – | 44.7 (2.2) ° C.
